According to ChEMBL document CHEMBL1145145, “Design and synthesis of o-trifluoromethylbiphenyl substituted 2-amino-nicotinonitriles as inhibitors of farnesyltransferase” (Bioorg Med Chem Lett, 2005):

How the values were obtained:
[1] = target: Protein farnesyltransferase (Bos taurus, UniProt P29702+P49355); assay: Inhibition of Bovine farnesyl transferase; assay type: protein-complex assay
[2] = target: T1, Protein farnesyltransferase (Mus musculus, UniProt Q61239+Q8K2I1); assay: Effective concentration against H-ras processing in transformed NIH3T3 cells; assay type: functional, cell-based
[3] = target: Geranylgeranyl transferase type I (Bos taurus, UniProt P29702+Q5EAD5); assay: Inhibition of Bovine geranylgeranyl transferase; assay type: protein-complex assay
[4] = target: T1, Protein farnesyltransferase; assay: Inhibition of H-ras processing in transformed NIH3T3 cells
[5] = target: Protein farnesyltransferase (Bos taurus) (UniProt P29702+P49355); assay: Percentage inhibition of Bovine farnesyl transferase at 100 nM; assay type: protein-complex assay
[6] = target: T1, Protein farnesyltransferase; assay: Effective concentration against H-ras processing in NIH 3T3 cells; assay type: functional, cell-based, NIH3T3
Bos taurus = species: Bos taurus; assay: Selectivity for Bovine farnesyl transferase over geranylgeranyl transferase
[7] = target: Protein farnesyltransferase (Homo sapiens, UniProt P49354+P49356); assay: Inhibition of Farnesyl transferase inhibitor (ABT-839); assay type: protein-complex assay

Row | IC50 [1] [nM] | EC50 [2] [nM] | IC50 [3] [nM] | SMILES | other results
1 | 14 | > 1000 | – | Cn1cncc1C(OCc1ccc(C#N)cc1)c1ccc(C#N)c(-c2ccccc2C(=O)O)c1 (stereo not drawn) | –
2 | 38 | – | – | Cc1ccccc1-c1cc(C(OCc2cccc(F)c2)c2cncn2C)ccc1C#N (stereo not drawn) | –
3 | 7.7 | 201 | 2200 | Cn1cncc1C(OCc1ccc(C#N)c(NCC2CCOC2)n1)c1ccc(C#N)c(-c2ccccc2C(F)(F)F)c1 (stereo not drawn) | –
4 | 5.5 | – | 480 | Cn1cncc1C(OCc1ccc(C#N)cc1)c1ccc(C#N)c(-c2ccccc2CO)c1 (stereo not drawn) | inhibition [4]: 89%
5 | 51 | – | – | Cc1ccccc1-c1cc(C(OCc2ccc(C(C)C)cc2)c2cncn2C)ccc1C#N (stereo not drawn) | –
6 | 2.6 | 130 | 1800 | CC(=O)N1CCN(c2nc(COC(c3ccc(C#N)c(-c4ccccc4C(F)(F)F)c3)c3cncn3C)ccc2C#N)CC1 (stereo not drawn) | –
7 | – | – | – | Cc1ccccc1-c1cc(C(OCc2noc(-c3ccccc3)n2)c2cncn2C)ccc1C#N (stereo not drawn) | inhibition [5]: 56%
8 | 8.3 | – | – | Cc1ccccc1-c1cc(C(OCc2cccc(OC(F)(F)F)c2)c2cncn2C)ccc1C#N (stereo not drawn) | –
9 | 1.3 | 30 | 2000 | Cn1cncc1C(OCc1ccc(C#N)c(N2CCN(CCO)CC2)n1)c1ccc(C#N)c(-c2ccccc2C(F)(F)F)c1 (stereo not drawn) | –
10 | 33 | – | – | Cc1ccccc1-c1cc(C(OCc2ccccc2[N+](=O)[O-])c2cncn2C)ccc1C#N (stereo not drawn) | –
11 | 11 | – | – | Cc1ccccc1-c1cc(C(OCc2ccc(Cl)cc2)c2cncn2C)ccc1C#N (stereo not drawn) | –
12 | 19 | – | – | Cc1ccccc1-c1cc(C(OCc2cc(Cl)cc(Cl)c2)c2cncn2C)ccc1C#N (stereo not drawn) | –
13 | 32 | – | – | Cc1ccccc1-c1cc(C(OCc2ccc(F)cc2)c2cncn2C)ccc1C#N (stereo not drawn) | –
14 | 10 | – | 750 | Cn1cncc1C(OCc1ccc(C#N)c(NCc2cccc(F)c2)n1)c1ccc(C#N)c(-c2ccccc2C(F)(F)F)c1 (stereo not drawn) | –
15 | 13 | – | – | Cc1ccccc1-c1cc(C(OCc2cccc(Br)c2)c2cncn2C)ccc1C#N (stereo not drawn) | –
16 | 4 | – | – | Cc1ccccc1-c1cc(C(OCc2ccc(C#N)cc2)c2cncn2C)ccc1C#N (stereo in doubt; 4q) | –
17 | 61 | – | – | COC(=O)c1cccc(COC(c2ccc(C#N)c(-c3ccccc3C)c2)c2cncn2C)c1 (stereo not drawn) | –
18 | 38 | – | – | Cc1ccccc1-c1cc(C(OCc2ccc(S(C)(=O)=O)cc2)c2cncn2C)ccc1C#N (stereo not drawn) | –
19 | 3.6 | 210 | 680 | Cn1cncc1C(OCc1ccc(C#N)c(N2CCC[C@@H]2C(=O)O)n1)c1ccc(C#N)c(-c2ccccc2C(F)(F)F)c1 (stereo partly drawn) | –
20 | 15 | – | – | Cc1ccccc1-c1cc(C(OCc2cnc(Cl)c(Cl)c2)c2cncn2C)ccc1C#N (stereo not drawn) | –
21 | 19 | – | – | Cc1ccccc1-c1cc(C(OCc2cccc(Cl)c2)c2cncn2C)ccc1C#N (stereo not drawn) | –
22 | 12 | – | – | Cc1ccccc1-c1cc(C(OCc2ccc(C(F)(F)F)cc2)c2cncn2C)ccc1C#N (stereo not drawn) | –
23 | 1.3 | 13 | 1400 | Cn1cncc1C(OCc1ccc(C#N)c(N2CCCC(O)C2)n1)c1ccc(C#N)c(-c2ccccc2C(F)(F)F)c1 (stereo not drawn) | –
24 | 20 | – | – | Cc1ccccc1-c1cc(C(OCc2cccc(I)c2)c2cncn2C)ccc1C#N (stereo not drawn) | –

Row | IC50 [1] [nM] | EC50 [2] [nM] | IC50 [3] [nM] | SMILES | other results
25 | 84 | – | 1300 | Cc1ccccc1-c1cc(C(OCc2ccccc2)c2cncn2C)ccc1C#N (stereo not drawn) | EC50 [6]: 2700 nM; Selectivity (Bos taurus): 16
26 | 29 | – | – | Cc1ccccc1-c1cc(C(OCc2csc(-c3ccc(Cl)cc3)n2)c2cncn2C)ccc1C#N (stereo not drawn) | –
27 | 7.5 | – | – | Cc1ccccc1-c1cc(C(OCc2ccc([N+](=O)[O-])cc2)c2cncn2C)ccc1C#N (stereo not drawn) | –
28 | 54 | – | – | Cc1ccccc1COC(c1ccc(C#N)c(-c2ccccc2C)c1)c1cncn1C (stereo not drawn) | –
29 | 27 | – | – | Cc1ccccc1-c1cc(C(OCc2ccc(Cl)c(Cl)c2)c2cncn2C)ccc1C#N (stereo not drawn) | –
30 | 3.5 | 120 | 970 | Cn1cncc1C(OCc1ccc(C#N)c(N2CCC(O)C2)n1)c1ccc(C#N)c(-c2ccccc2C(F)(F)F)c1 (stereo not drawn) | –
31 | 160 | – | – | Cn1cncc1C(OCc1ccc(C#N)cc1)c1ccc(C#N)c(-c2cc3ccccc3s2)c1 (stereo not drawn) | –
32 | 16 | – | – | Cc1ccccc1-c1cc(C(OCc2ccc(OC(F)(F)F)cc2)c2cncn2C)ccc1C#N (stereo not drawn) | –
33 | 62 | – | – | Cc1ccccc1-c1cc(C(OCc2ccccc2C#N)c2cncn2C)ccc1C#N (stereo not drawn) | –
34 | 1.3 | 89 | 1200 | Cn1cncc1C(OCc1ccc(C#N)c(N2CCOCC2)n1)c1ccc(C#N)c(-c2ccccc2C(F)(F)F)c1 (stereo not drawn) | –
35 | 1.8 | 11 | 1400 | Cn1cncc1C(OCc1ccc(C#N)c(N2CCC(CO)CC2)n1)c1ccc(C#N)c(-c2ccccc2C(F)(F)F)c1 (stereo not drawn) | –
36 | – | 85 | 310 | Cn1cncc1C(OCc1ccc(C#N)cc1)c1ccc(C#N)c(-c2ccccc2C(F)(F)F)c1 (stereo not drawn) | –
37 | 1.5 | 240 | 85 | Cn1cncc1C(OCc1ccc(C#N)cc1)c1ccc(C#N)c(-c2cccc(Cl)c2Cl)c1 (stereo not drawn) | –
38 | – | – | – | CCCCN(CCC1CCCCC1)Cc1ccc(C(=O)N[C@@H](CCSC)C(=O)O)c(-c2ccccc2C)c1 | Selectivity (Bos taurus): 75000
39 | – | – | – | COC(=O)c1ccc(COC(c2ccc(C#N)c(-c3ccccc3C)c2)c2cncn2C)o1 (stereo not drawn) | inhibition [5]: 50%
40 | 48 | – | – | Cc1ccccc1-c1cc(C(OCc2ccccc2Cl)c2cncn2C)ccc1C#N (stereo not drawn) | –
41 | 1.2 | 53 | 2600 | CN1CCN(c2nc(COC(c3ccc(C#N)c(-c4ccccc4C(F)(F)F)c3)c3cncn3C)ccc2C#N)CC1 (stereo not drawn) | –
42 | 87 | – | – | Cc1ccccc1-c1cc(C(OCc2ccc(C(C)(C)C)cc2)c2cncn2C)ccc1C#N (stereo not drawn) | –
43 | 1.7 | – | 72 | Cn1cncc1C(OCc1ccc(Cl)c(Cl)c1)c1ccc(C#N)c(-c2ccccc2C(F)(F)F)c1 (stereo not drawn) | –
44 | 81 | – | – | Cc1ccccc1-c1cc(C(OCc2c(Cl)cccc2Cl)c2cncn2C)ccc1C#N (stereo not drawn) | –
45 | 6.1 | – | – | COC(=O)c1ccc(COC(c2ccc(C#N)c(-c3ccccc3C)c2)c2cncn2C)cc1 (stereo not drawn) | –
46 | 61 | – | – | Cc1cccc(COC(c2ccc(C#N)c(-c3ccccc3C)c2)c2cncn2C)c1 (stereo not drawn) | –
47 | 13 | – | – | Cc1ccccc1-c1cc(C(OCc2ccc(-c3ccccc3)cc2)c2cncn2C)ccc1C#N (stereo not drawn) | –
48 | 12 | – | – | Cc1ccccc1-c1cc(C(OCc2ccc(Br)cc2)c2cncn2C)ccc1C#N (stereo not drawn) | –

Row | IC50 [1] [nM] | EC50 [2] [nM] | IC50 [3] [nM] | SMILES | other results
49 | – | – | – | Cc1ccccc1-c1cc(C(OCc2ccccc2Br)c2cncn2C)ccc1C#N (stereo not drawn) | inhibition [1]: 65%
50 | 4.1 | 100 | 120 | Cn1cncc1C(OCc1ccc(F)c(C(F)(F)F)c1)c1ccc(C#N)c(-c2ccccc2C(F)(F)F)c1 (stereo not drawn) | –
51 | 59 | – | – | Cc1ccccc1-c1cc(C(OCc2cccc3cccnc23)c2cncn2C)ccc1C#N (stereo not drawn) | –
52 | 47 | > 1000 | – | Cn1cncc1C(OCc1ccc(C#N)cc1)c1ccc(C#N)c(-c2ccc(Cl)cc2Cl)c1 (stereo not drawn) | –
53 | 4.8 | 420 | 180 | Cc1ccccc1-c1cc(C(OCc2ccc(C#N)cc2)c2cncn2C)ccc1C#N (stereo in doubt; 10a) | –
54 | 7.5 | 285 | 2400 | Cn1cncc1C(OCc1ccc(C#N)c(NCC2CCCO2)n1)c1ccc(C#N)c(-c2ccccc2C(F)(F)F)c1 (stereo not drawn) | IC50 [7]: 1.1 nM
55 | 9.1 | > 1000 | 2300 | Cn1cncc1C(OCc1ccc(C#N)c(NCCc2ccccc2)n1)c1ccc(C#N)c(-c2ccccc2C(F)(F)F)c1 (stereo not drawn) | –
56 | 1.7 | 330 | 1600 | CC(=O)NC1CCN(c2nc(COC(c3ccc(C#N)c(-c4ccccc4C(F)(F)F)c3)c3cncn3C)ccc2C#N)C1 (stereo not drawn) | –
57 | 13 | – | – | Cc1ccccc1-c1cc(C(OCc2ccc(I)cc2)c2cncn2C)ccc1C#N (stereo not drawn) | –
58 | 17 | – | – | Cc1ccccc1-c1cc(C(OCc2cccc3ccccc23)c2cncn2C)ccc1C#N (stereo not drawn) | –
59 | – | – | – | Cc1ccccc1-c1cc(C(OCc2ccc3ccccc3c2)c2cncn2C)ccc1C#N (stereo not drawn) | inhibition [5]: 76%
60 | 54 | – | – | Cc1ccc(COC(c2ccc(C#N)c(-c3ccccc3C)c2)c2cncn2C)cc1 (stereo not drawn) | –
61 | 1.9 | 110 | – | Cn1cncc1C(OCc1ccc(C#N)cc1)c1ccc(C#N)c(-c2ccccc2C=O)c1 (stereo not drawn) | –
62 | 59 | – | – | COc1ccc(COC(c2ccc(C#N)c(-c3ccccc3C)c2)c2cncn2C)cc1 (stereo not drawn) | –
63 | 8.1 | – | – | Cc1ccccc1-c1cc(C(OCc2cccc(C(F)(F)F)c2)c2cncn2C)ccc1C#N (stereo not drawn) | –
64 | 2.7 | 90 | 1500 | Cn1cncc1C(OCc1ccc(C#N)cn1)c1ccc(C#N)c(-c2ccccc2C(F)(F)F)c1 (stereo not drawn) | –
65 | 70 | – | – | Cc1ccccc1-c1cc(C(OCc2ccccc2F)c2cncn2C)ccc1C#N (stereo not drawn) | –
66 | – | 110 | – | Cn1cncc1C(OCc1ccc(C#N)cc1)c1ccc(C#N)c(-c2cccc3ccccc23)c1 (stereo not drawn) | –
67 | 6.1 | > 1000 | 160 | Cn1cncc1C(OCc1ccc(C(F)(F)F)c(F)c1)c1ccc(C#N)c(-c2ccccc2C(F)(F)F)c1 (stereo not drawn) | –
68 | 13 | – | – | Cc1ccccc1-c1cc(C(OCc2cc(Cl)nc(Cl)c2)c2cncn2C)ccc1C#N (stereo not drawn) | –
69 | 2.1 | > 1000 | 130 | Cc1cccc(-c2cc(C(OCc3ccc(C#N)cc3)c3cncn3C)ccc2C#N)c1C (stereo not drawn) | –
70 | 9 | – | 3900 | COC(=O)c1ccc(COC(c2ccc(C#N)c(-c3ccccc3C(F)(F)F)c2)c2cncn2C)nc1 (stereo not drawn) | inhibition [4]: 83%
71 | 2 | 170 | 920 | Cn1cncc1C(OCc1ccc(C#N)c(N2CCC[C@@H]2CO)n1)c1ccc(C#N)c(-c2ccccc2C(F)(F)F)c1 (stereo partly drawn) | –
